From ChEMBL document CHEMBL5053535, “Design, synthesis and biological evaluation of novel aminopyrazole- and 7-azaindole-based Nek1 inhibitors and their effects on zebrafish kidney development” (Bioorg Med Chem Lett, 2021)

How the values were obtained:
[1] = target: Vascular endothelial growth factor receptor 2 (Homo sapiens) (UniProt P35968); assay: Inhibition of human recombinant C-terminal His6 tagged VEGFR2 (789 to 1356 residues) expressed in baculovirus infected insect cells assessed as residual activity at 1 uM pretreated for 20 mins followed by [33P]-ATP addition measured after 120 mins by radiometric hotspot kinase assay relative to control; conditions: time 140.0 min
[2] = species: Danio rerio; assay: Toxicity in wild type zebra fish model of polycystic kidney disease assessed as increase in fluorescence intensity at 0.5 uM incubated for 48 hrs in presence of N-phenyl thiourea further treated with PT-yellow for 20 mins followed by dye washout and incubated in solution containing compound for 96 hrs by fluorescence imaging analysis; format: organism-based; conditions: zebrafish, in vivo
[3] = target: T1, Serine/threonine-protein kinase Chk1 (Homo sapiens) (UniProt O14757); assay: Inhibition of human recombinant full length N-terminal His tagged CHK1 expressed in baculovirus infected Sf21 insect cells using CHKtide as substrate assessed as residual activity at 1 uM pretreated for 20 mins followed by [33P]-ATP addition measured after 120 mins by radiometric hotspot kinase assay relative to control; conditions: time 140.0 min
T1 sequence (whole entry): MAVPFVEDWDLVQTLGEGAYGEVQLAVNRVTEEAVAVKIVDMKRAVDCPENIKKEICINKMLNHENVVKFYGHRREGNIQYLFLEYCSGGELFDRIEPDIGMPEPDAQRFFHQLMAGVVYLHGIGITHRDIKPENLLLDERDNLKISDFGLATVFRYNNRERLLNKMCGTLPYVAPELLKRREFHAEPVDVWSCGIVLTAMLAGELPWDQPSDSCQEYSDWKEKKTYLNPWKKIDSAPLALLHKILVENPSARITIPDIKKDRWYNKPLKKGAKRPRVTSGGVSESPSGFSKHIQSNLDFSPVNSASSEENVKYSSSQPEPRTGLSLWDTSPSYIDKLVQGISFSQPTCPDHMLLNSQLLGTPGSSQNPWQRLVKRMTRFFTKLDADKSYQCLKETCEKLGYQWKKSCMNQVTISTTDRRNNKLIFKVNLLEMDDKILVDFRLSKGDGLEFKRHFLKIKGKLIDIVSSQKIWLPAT

[4] = target: T2, Serine/threonine-protein kinase Nek1 (Homo sapiens, UniProt Q96PY6); assay: Inhibition of human NEK1 using myelin basic protein as substrate assessed as residual activity in presence of [gamma-33P]-ATP by radiometric hotspot kinase assay relative to control
T2 sequence (Q96PY6 whole entry): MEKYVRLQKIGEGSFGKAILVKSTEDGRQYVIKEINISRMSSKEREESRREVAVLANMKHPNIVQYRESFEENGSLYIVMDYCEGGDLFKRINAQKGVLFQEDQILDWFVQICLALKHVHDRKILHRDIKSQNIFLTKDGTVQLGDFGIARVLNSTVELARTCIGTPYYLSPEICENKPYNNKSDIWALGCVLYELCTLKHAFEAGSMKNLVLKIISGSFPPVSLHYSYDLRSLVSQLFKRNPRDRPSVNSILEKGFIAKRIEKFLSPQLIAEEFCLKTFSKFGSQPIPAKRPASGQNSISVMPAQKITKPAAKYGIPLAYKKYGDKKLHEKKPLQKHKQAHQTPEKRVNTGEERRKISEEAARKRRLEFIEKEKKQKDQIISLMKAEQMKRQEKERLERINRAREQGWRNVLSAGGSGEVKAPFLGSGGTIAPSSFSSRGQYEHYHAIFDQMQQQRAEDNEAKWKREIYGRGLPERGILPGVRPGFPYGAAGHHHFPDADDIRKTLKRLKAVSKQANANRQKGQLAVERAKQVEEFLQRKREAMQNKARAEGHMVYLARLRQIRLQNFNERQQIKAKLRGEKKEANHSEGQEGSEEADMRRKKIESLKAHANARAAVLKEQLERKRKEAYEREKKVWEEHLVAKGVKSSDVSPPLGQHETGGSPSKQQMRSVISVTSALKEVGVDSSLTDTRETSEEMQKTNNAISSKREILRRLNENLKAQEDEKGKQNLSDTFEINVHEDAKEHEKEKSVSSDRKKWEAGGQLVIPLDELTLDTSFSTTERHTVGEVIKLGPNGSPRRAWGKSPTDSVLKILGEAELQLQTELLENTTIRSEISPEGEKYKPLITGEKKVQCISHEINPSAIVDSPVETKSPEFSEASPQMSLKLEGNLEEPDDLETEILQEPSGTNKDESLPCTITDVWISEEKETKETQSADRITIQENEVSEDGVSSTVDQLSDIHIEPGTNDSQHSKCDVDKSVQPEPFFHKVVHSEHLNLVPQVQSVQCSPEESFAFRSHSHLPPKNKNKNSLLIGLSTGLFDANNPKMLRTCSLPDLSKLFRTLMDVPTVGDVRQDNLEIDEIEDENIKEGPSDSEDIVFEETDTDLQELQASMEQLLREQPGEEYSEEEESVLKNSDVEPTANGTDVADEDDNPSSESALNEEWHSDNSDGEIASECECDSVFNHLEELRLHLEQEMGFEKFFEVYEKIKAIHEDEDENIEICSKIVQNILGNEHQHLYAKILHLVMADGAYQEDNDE

[5] = target: T3, Serine/threonine-protein kinase Nek1 (Homo sapiens) (UniProt Q96PY6); assay: Inhibition of human NEK1 using myelin basic protein as substrate assessed as residual activity at 1 uM in presence of [gamma-33P]-ATP by radiometric hotspot kinase assay relative to control
T3 sequence (whole entry): T2 sequence (Q96PY6 whole entry)

[6] = Stability of the compound in DMEM measured after 48 hrs by DAD-HPLC method; format: physicochemical; conditions: read-out: Stability
[7] = Permeability across basolateral to apical side in human Caco-2 cells at pH 7.4 at 1 uM; format: ADME, cell-based; conditions: Caco-2, pH 7.4, read-out: permeability
[8] = target: T4, Serine/threonine-protein kinase Nek5 (Homo sapiens) (UniProt Q6P3R8); assay: Inhibition of human recombinant NEK5 assessed as residual activity at 1 uM pretreated for 20 mins followed by [33P]-ATP addition measured after 120 mins by radiometric hotspot kinase assay relative to control; conditions: time 140.0 min
T4 sequence (whole entry): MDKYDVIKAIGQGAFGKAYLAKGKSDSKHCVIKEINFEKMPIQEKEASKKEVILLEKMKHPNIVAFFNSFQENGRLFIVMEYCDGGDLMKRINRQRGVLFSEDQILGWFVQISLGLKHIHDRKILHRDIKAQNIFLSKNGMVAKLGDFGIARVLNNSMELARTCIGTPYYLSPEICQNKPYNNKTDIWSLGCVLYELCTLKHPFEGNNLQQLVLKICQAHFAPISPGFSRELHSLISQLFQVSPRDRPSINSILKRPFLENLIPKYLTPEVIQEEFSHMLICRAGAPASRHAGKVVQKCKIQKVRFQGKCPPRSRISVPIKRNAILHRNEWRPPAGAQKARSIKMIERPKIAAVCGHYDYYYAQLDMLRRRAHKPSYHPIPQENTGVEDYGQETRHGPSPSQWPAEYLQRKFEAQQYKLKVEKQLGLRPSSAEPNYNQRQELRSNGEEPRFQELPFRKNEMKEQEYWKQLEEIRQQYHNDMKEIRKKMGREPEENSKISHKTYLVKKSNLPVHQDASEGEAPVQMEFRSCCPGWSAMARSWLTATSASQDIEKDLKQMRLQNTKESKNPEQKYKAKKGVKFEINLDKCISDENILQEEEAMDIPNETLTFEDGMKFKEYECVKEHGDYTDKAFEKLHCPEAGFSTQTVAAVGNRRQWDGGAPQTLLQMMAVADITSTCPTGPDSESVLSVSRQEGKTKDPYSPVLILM

Chain of Vascular endothelial growth factor receptor 2 (Homo sapiens) (P35968 whole entry, the tested form may be a part): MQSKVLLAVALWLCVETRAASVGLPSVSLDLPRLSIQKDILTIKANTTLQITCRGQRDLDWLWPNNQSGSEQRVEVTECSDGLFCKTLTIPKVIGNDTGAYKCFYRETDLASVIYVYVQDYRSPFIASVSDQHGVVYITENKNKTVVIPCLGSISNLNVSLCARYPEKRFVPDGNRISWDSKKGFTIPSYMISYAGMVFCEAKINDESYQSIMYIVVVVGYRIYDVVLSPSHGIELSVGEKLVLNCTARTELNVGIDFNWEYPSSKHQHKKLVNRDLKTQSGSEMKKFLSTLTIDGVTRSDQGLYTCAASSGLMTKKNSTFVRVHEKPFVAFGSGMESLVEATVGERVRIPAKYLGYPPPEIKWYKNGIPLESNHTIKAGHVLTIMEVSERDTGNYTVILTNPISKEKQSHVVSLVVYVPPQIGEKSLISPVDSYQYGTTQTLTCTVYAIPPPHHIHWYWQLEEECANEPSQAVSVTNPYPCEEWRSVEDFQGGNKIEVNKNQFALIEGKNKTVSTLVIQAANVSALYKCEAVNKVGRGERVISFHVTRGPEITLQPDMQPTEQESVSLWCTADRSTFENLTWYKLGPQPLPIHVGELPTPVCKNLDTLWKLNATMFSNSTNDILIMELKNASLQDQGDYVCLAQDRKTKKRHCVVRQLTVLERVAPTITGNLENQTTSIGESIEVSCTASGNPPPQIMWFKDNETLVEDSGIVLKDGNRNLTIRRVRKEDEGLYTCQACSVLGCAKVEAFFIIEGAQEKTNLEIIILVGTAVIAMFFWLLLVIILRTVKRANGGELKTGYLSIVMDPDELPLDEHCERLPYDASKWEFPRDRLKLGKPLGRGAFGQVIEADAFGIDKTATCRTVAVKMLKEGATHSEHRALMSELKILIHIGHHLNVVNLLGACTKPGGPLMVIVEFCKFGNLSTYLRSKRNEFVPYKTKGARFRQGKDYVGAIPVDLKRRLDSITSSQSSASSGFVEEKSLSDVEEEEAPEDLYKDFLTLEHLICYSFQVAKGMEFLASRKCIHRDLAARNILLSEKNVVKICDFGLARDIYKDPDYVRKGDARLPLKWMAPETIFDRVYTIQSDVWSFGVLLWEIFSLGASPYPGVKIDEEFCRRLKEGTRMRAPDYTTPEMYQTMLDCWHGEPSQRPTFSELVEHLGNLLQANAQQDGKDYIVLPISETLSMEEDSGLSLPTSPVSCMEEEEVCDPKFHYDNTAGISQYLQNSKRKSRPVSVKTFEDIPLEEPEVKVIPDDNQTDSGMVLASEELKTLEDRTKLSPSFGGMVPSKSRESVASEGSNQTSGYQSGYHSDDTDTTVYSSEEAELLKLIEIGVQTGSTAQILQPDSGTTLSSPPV

Q: Which Activity [1] does the source give for `COC(=O)c1cccc(-c2cnc3[nH]cc(-c4cccnc4)c3c2)c1` here?
A: Its Activity is 34.3%.

Q: What about the Activity [2] of the same compound?
A: Its Activity is “Toxic”.

Q: What about the Activity [3] of the same compound?
A: Its Activity is 48.5%.

Q: And the IC50 [4]?
A: The IC50 was 11.5 nM.

Q: And the Activity [5]?
A: The Activity was -0.6%.

Q: And the remaining at 48 h [6]?
A: Its remaining at 48 h is 103%.

Q: And the Papp B→A at 1 µM [7]?
A: The Papp B→A at 1 µM was 0.04 ×10⁻⁶ cm/s.

Q: And the Activity [8]?
A: The Activity was 10.4%.
